{"source": "patent EP0341661A2", "about": "“Peptide-drug compositions containing alpha-aminoboronic acid derivatives” (THE DU PONT MERCK PHARMACEUTICAL COMPANY, priority 1988, dated 1989)", "key": {"aminopeptidases [1]": {"tested_on": "aminopeptidases", "test": "In situ nasal perfusion: disappearance of 35 µM LH-RH (fragment 3-10) in the nasal perfusate", "format": "in vivo, Sprague-Dawley rats", "conditions": "0.465 µM Boroleucine", "method": "The method involved the use of Sprague-Dawley rats weighing approximately 300 grams. Each rat was anesthetized with sodium pentobarbitol (50 mg/kg). An incision was made in the neck and the trachea was canulated with PE 240 tubing. For the in situ studies, a second tube, which served to introduce the perfusing solution, was inserted through the esophagus to the posterior part of the nasal cavity. The nasopalatine was closed with an adhesive to prevent drainage of the perfusing solution from the nasal to the oral cavity. For the in vivo in situ studies, the esophagus was canulated using PE 240 tubing closed at one end. The closed end was pushed to the posterior end of the nasal passage and then tied in place. The nasopalatine was closed with an adhesive to prevent drainage of the perfusing solution from the nasal to the oral cavity. The rats were dosed in one nostril with 50 µl of peptide solution in two forms; the control solution had no inhibitor added, the test solution had inhibitor added at concentrations specified in the examples shown below. The dosing solution was 0.1 M phosphate buffer (pH 7.4). At certain time intervals (one rat/time interval), the drug was washed from the nose via the other nostril with 10 ml of 0.1 M phosphate buffer (pH 3.8) using a peristaltic pump. The nasal washing was then placed in a 10 ml volumetric flask and adjusted to 10 ml with the same buffer and analyzed for the peptide by HPLC.\nThe analysis of leucine enkephalin and its major metabolite involved taking aliquots of samples, diluting them with 200 µl of 0.1 M citric acid (pH 2.3) to quench hydrolysis and subjecting the samples to analysis (for in vivo in situ studies, the washings were injected as they were obtained). High Pressure Liquid Chromatography (HPLC) was run on a 4.6 x 250 mm C₈ column. The mobile phase consisted of 0.1 M NaH₂PO₄-H₃PO₄-acetonitrile (916 : 5 : 275) and was delivered at a flow rate of 1.7 ml/min. Detection was by UV at 210 nm. Retention times for leucine enkephalin and its major degradation product, Des-Tyr-leucine enkephalin were 7.3 and 4.8 min., respectively. Data were calculated as % of leucine enkephalin remaining in the nasal perfusate as a function of time, counting the concentration at zero time as 100%.\nA 10 ml portion of the peptide solution was placed in a water-jacketed container, maintained at 37°C and circulated through the nasal cavity of rats using a peristaltic pump. The perfusing solution was passed through the nasal cavity, out the nostrils, through a funnel, and returned to the water-jacketed container. The perfusate was analyzed by the ANALYTICAL METHOD described above.\nIn this example, a 0.1 M phosphate buffer solution (pH 7.4) containing 35 µM LH-RH (fragment 3-10) in the absence of inhibitor and in the presence of the inhibitor, boroleucine at a concentration of 0.46 µM was administered to rats as described in Example 1. The perfusate was analyzed by HPLC as described in Example 1 with the exception of the mobile phase used. The mobile phase was comprised of 0.1 M NaH₂PO₄:H₃PO₄:CH₃CN(916:5:240) delivered at 1.7 ml/min and analyzed by UV at 210 nm."}, "aminopeptidases [2]": {"tested_on": "aminopeptidases", "test": "In situ nasal perfusion: degradation of 100 µM leucine enkephalin in the nasal perfusate", "format": "in vivo, Sprague-Dawley rats", "conditions": "0.01 µM Boroleucine (title: 0.1 µM), 60 min"}}, "note": "Structures can show the parent of a compound that is named as a salt.", "data": [{"smiles": "CC(C)CC(N)B1OC(C)(C)C(C)(C)O1", "note": "(centres unmarked) [boroleucine, 3-methyl-1(4,4,5,5-tetramethyl-1,3,2-dioxaborolane-2-yl)-1-butamine, trifluoroacetic acid salt]", "values": [{"measurement": "LH-RH (fragment 3-10) remaining in the nasal perfusate", "setting": "aminopeptidases [1]; 0 min", "value": 100.0, "unit": "%"}, {"measurement": "LH-RH (fragment 3-10) remaining in the nasal perfusate", "setting": "aminopeptidases [1]; 5 min", "value": 96.7, "unit": "%"}, {"measurement": "LH-RH (fragment 3-10) remaining in the nasal perfusate", "setting": "aminopeptidases [1]; 10 min", "value": 97.5, "unit": "%"}, {"measurement": "LH-RH (fragment 3-10) remaining in the nasal perfusate", "setting": "aminopeptidases [1]; 20 min", "value": 95.5, "unit": "%"}, {"measurement": "LH-RH (fragment 3-10) remaining in the nasal perfusate", "setting": "aminopeptidases [1]; 30 min", "value": 96.5, "unit": "%"}, {"measurement": "LH-RH (fragment 3-10) remaining in the nasal perfusate", "setting": "aminopeptidases [1]; 45 min", "value": 95.8, "unit": "%"}, {"measurement": "LH-RH (fragment 3-10) remaining in the nasal perfusate", "setting": "aminopeptidases [1]; 60 min", "value": 91.9, "unit": "%"}, {"measurement": "LH-RH (fragment 3-10) remaining in the nasal perfusate", "setting": "aminopeptidases [1]; 90 min", "value": 92.9, "unit": "%"}, {"measurement": "LH-RH (fragment 3-10) remaining in the nasal perfusate", "setting": "aminopeptidases [1]; 120 min, listed as Boroleucine, trifluoroacetic acid salt", "value": 86.4, "unit": "%"}, {"measurement": "LH-RH (fragment 3-10) remaining in the nasal perfusate", "setting": "aminopeptidases [1]; 120 min, trifluoroacetic acid salt", "value": "about 86%"}, {"measurement": "% of leucine enkephalin remaining in the nasal perfusate", "setting": "aminopeptidases [2]", "value": "88.8±2.6", "unit": "%"}]}]}
